From ChEMBL document CHEMBL4000248, “Synthesis and biological evaluation of cyclic imides incorporating benzenesulfonamide moieties as carbonic anhydrase I, II, IV and IX inhibitors” (Bioorg Med Chem, 2017) come the findings set out here.

By Ki is commonly meant a dissociation constant, usually derived from enzyme kinetics or from competition with a known ligand.

For this experiment, the target named is Carbonic anhydrase 9 (Homo sapiens, UniProt Q16790). In words: Inhibition of recombinant human carbonic anhydrase 9 incubated for 10 mins prior to testing by stopped flow CO2 hydrase assay.

Structures are written as SMILES.

For `NS(=O)(=O)c1ccc(CCN2C(=O)CCC2=O)cc1`, the Ki came out at 296 nM. With `NS(=O)(=O)c1ccc(CCN2C(=O)c3c(Br)c(Br)c(Br)c(Br)c3C2=O)cc1` the figure was 2390 nM; with `NS(=O)(=O)c1ccc(CCN2C(=O)c3ccc([N+](=O)[O-])cc3C2=O)cc1`, 1640 nM; with `CC(C)(C)c1ccc2c(c1)C(=O)N(CCc1ccc(S(N)(=O)=O)cc1)C2=O`, 459 nM. As for `NS(=O)(=O)c1ccc(CCN2C(=O)c3cc(Cl)c(Cl)cc3C2=O)cc1`, the Ki worked out at 428 nM. Take `NS(=O)(=O)c1ccc(N2C(=O)C3C(C2=O)C2(Cl)C(Cl)=C(Cl)C3(Cl)C2(Cl)Cl)cc1` (centres undefined): the Ki was 13.7 nM. For `NS(=O)(=O)c1ccc(CCN2C(=O)[C@H]3CC=CC[C@H]3C2=O)cc1`, the Ki was determined as 296 nM. With `NS(=O)(=O)c1ccc(CN2C(=O)C3C(C2=O)C2(Cl)C(Cl)=C(Cl)C3(Cl)C2(Cl)Cl)cc1` (centres undefined), the inhibitory constant (Ki) was 16.9 nM. `NS(=O)(=O)c1ccc(CCN2C(=O)c3cccc([N+](=O)[O-])c3C2=O)cc1`: the Ki came out at 2670 nM. Take `NS(=O)(=O)c1ccc(CCN2C(=O)c3nccnc3C2=O)cc1`: the Ki is 4190 nM. Then `Cc1ccc2c(c1)C(=O)N(CCc1ccc(S(N)(=O)=O)cc1)C2=O`, with 390 nM. On to `NS(=O)(=O)c1ccc(CCN2C(=O)C=CC2=O)cc1`, for which the Ki turned out to be 274 nM. With `NS(=O)(=O)c1ccc(CCN2C(=O)c3ccccc3C2=O)cc1` the figure was 296 nM; with `NS(=O)(=O)c1ccc(CCN2C(=O)C3C(C2=O)C2(Cl)C(Cl)=C(Cl)C3(Cl)C2(Cl)Cl)cc1` (centres undefined), 114 nM.
